Results on one compound are retold here after patent US20250367171A1, “THERAPEUTIC OR PROPHYLACTIC AGENT FOR PERIPHERAL NEUROPATHIES” (Toray Industries, Inc., priority 2017, published 2025).

Common to all, as to assay type: in vivo
Test [1] deals with rat streptozotocin-induced diabetes model. As to the kind of experiment: Nerve conduction velocity in rat streptozotocin-induced diabetes model. To be noted: 10 mg/kg oral twice a day, days 14 to 28 after induction, vs vehicle group. The procedure:
Streptozotocin (50 mg/kg, Sigma-Aldrich) was administered intravenously to SD rats (6 weeks old, male; CHARLES RIVER LABORATORIES JAPAN, INC.) via the tail vein, thereby preparing the streptozotocin-induced diabetes model. Streptozotocin was dissolved in a citrate buffer to prepare a 25 mg/mL solution, and then administered. A no pathological condition-induced animal was prepared by administering no streptozotocin solution. The day of initial administration was designated as day 1 after induction of pathological conditions.
On days 14 to 28 after induction of pathological conditions, a solution containing compound 1 (3 or 10 mg/kg) or a solvent thereof (water for injection) was orally administered to rats twice a day. […]
Nerve conduction velocity was measured within 3 days from the next day of the final administration. […] A-B stimulation and B-C stimulation were designated as distal stimulation and proximal stimulation, respectively, and then the transmission time of stimulation was analyzed on the basis of each lead-out waveform obtained from the electrode at the footpad. Nerve conduction velocity was calculated on the basis of a difference in transmission time between the distal stimulation and the proximal stimulation and the distance between the electrodes.

In test [2] the test system is rat oxaliplatin-induced peripheral neuropathy model. Briefly: Cold allodynia (cold plate test) in rat oxaliplatin-induced peripheral neuropathy model. The settings on record: 10 mg/kg oral twice a day, day 12 after induction, vs vehicle group. The procedure: Oxaliplatin (4 mg/kg, Elplat I.V. infusion solution […]; Yakult) was administered to SD rats (7 weeks old, male; CHARLES RIVER LABORATORIES JAPAN, INC.) in a cycle of 1 week (intraperitoneally administered twice, two consecutive days per week) for 2 or 3 weeks, thereby preparing an oxaliplatin-induced peripheral neuropathy model. As a control (pseudo-induction), a 5% glucose solution (Otsuka Pharmaceutical Factory, Inc.) was administered. The initial day of administration was designated as day 0 after induction of pathological conditions.
A solution containing compound 1 (3 or 10 mg/kg) or a solvent thereof (water for injection; Otsuka Pharmaceutical Factory, Inc.) was orally administered everyday (twice a day) (2nd administration was performed 8 hours after the 1st administration) to rats from day 0 after induction of pathological conditions for 18 days. […]
The beneficial effects on cold allodynia were evaluated before induction of pathological conditions and on day 12 after induction of pathological conditions (before the 1st administration of compound 1). Beneficial effects on cool allodynia were evaluated by cold plate test. […] An animal was placed on a plate kept at a predetermined temperature (8° C.), and then the withdrawal latency required until pain-related behaviors (hind paw lifting, hind paw shaking, hind paw licking, standing, or jumping) were confirmed was measured. […]

Test [3] deals with rat streptozotocin-induced diabetes model. As to the kind of experiment: Mechanical allodynia (von Frey test) in rat streptozotocin-induced diabetes model. The settings on record: day 28, 3 hours after administration, vs vehicle group. On the procedure: Streptozotocin (50 mg/kg, Sigma-Aldrich) was administered intravenously to SD rats (6 weeks old, male; CHARLES RIVER LABORATORIES JAPAN, INC.) via the tail vein, thereby preparing a streptozotocin-induced diabetes model. Streptozotocin was dissolved in physiological saline (Otsuka Pharmaceutical Factory, Inc.) to prepare a 25 mg/mL solution and then administered. Further, a pseudo-induction animal was also prepared by administering physiological saline instead of the streptozotocin solution. The initial day of administration was designated as day 0 after induction of pathological conditions.
[…] Groups were composed of 4 groups: a pseudo-induction and solvent administration group (sham group); a pathological condition-induced and solvent administration group (vehicle group); a pathological condition-induced and compound 1 (10 mg/kg) administration group (compound 1 (10 mg/kg) group); and a pathological condition-induced and compound 1 (30 mg/kg) administration group (compound 1 (30 mg/kg) group).
Beneficial effects on mechanical allodynia were evaluated in a manner similar to Example 5, and this evaluation was performed at 3 hours after administration of compound 1 on day 28 after induction of pathological conditions.

Test [4] has as its system rat cisplatin-induced peripheral neuropathy model. As to the kind of experiment: Mechanical allodynia (von Frey test) in rat cisplatin-induced peripheral neuropathy model. To be noted: 10 mg/kg oral single dose, day 34, 2 hours after administration, vs vehicle group. The procedure:
Cisplatin (Wako Pure Chemical Industries, Ltd.) was intraperitoneally administered to SD rats (6 weeks old, male; CHARLES RIVER LABORATORIES JAPAN, INC.) intermittently twice a week (1 or 2 mg/kg) for 5 weeks, thereby preparing a cisplatin-induced peripheral neuropathy model. Cisplatin was dissolved in physiological saline to a concentration of 10 mg/mL and then administered. As a control (pseudo-induction), physiological saline was administered. The initial day of administration was designated as day 1 after induction of pathological conditions.
On day 34 after induction of pathological conditions, a solution containing compound 1 (10 mg/kg) or a solvent thereof (water for injection) was orally administered to rats. Groups were composed of 3 groups: a pseudo-induction and solvent administration group (sham group); a pathological condition-induced and solvent administration group (vehicle group); and a pathological condition-induced and compound 1 (10 mg/kg) administration group (compound 1 (10 mg/kg) group).
Beneficial effects on mechanical allodynia were evaluated in a manner similar to Example 5 and this evaluation was performed before and 2 hours after administration of compound 1 on day 34 after induction of pathological conditions.

Test [5] concerns rat oxaliplatin-induced peripheral neuropathy model. As to the kind of experiment: Mechanical allodynia (von Frey test) in rat oxaliplatin-induced peripheral neuropathy model. The settings on record: day 18 after induction, vs vehicle group. The procedure:
Oxaliplatin (4 mg/kg, Elplat I.V. infusion solution […]; Yakult) was administered to SD rats (7 weeks old, male; CHARLES RIVER LABORATORIES JAPAN, INC.) in a cycle of 1 week (intraperitoneally administered twice, two consecutive days per week) for 2 or 3 weeks, thereby preparing an oxaliplatin-induced peripheral neuropathy model. As a control (pseudo-induction), a 5% glucose solution (Otsuka Pharmaceutical Factory, Inc.) was administered. The initial day of administration was designated as day 0 after induction of pathological conditions. […]
Beneficial effects on mechanical allodynia were evaluated before induction of pathological conditions and on day 18 after induction of pathological conditions (before the 1st administration of compound 1). Beneficial effects on mechanical allodynia were evaluated by von Frey test. The test method was performed according to the method described in the known literature (Chaplan et al. Journal of Neuroscience Methods, 1994, Vol. 53, p. 55-63) using von Frey filaments (North Coast Medical) so that 50% response threshold was calculated.

Turning to `CN(C)C1CCN(C(=O)C[C@H](O)c2nccn2C)CC1` [Compound 1, (S)-1-(4-(dimethylamino)piperidin-1-yl)-3-hydroxy-3-(1-methyl-1H-imidazol-2-yl)propan-1-one], the nerve conduction velocity result in test [1] is on record as “Significant increases in nerve conduction velocity”. In test [2], the “withdrawal latency in cold plate test (cold allodynia)” value is on record as “significantly prolonged withdrawal latency”. The “50% response threshold in von Frey test (mechanical allodynia)” value is reported as “significant increases in 50% response threshold” in test [3] (10 mg/kg oral single dose); “significant increases in 50% response threshold” in test [3] (30 mg/kg oral single dose); “significant increase in 50% response threshold” in test [4]; “significant increase in 50% response threshold” in test [5] (3 mg/kg oral twice a day); “significant increase in 50% response threshold” in test [5] (10 mg/kg oral twice a day).
